Common to all, as to test: antibiotic activity (MIC)
Holding throughout (format): cell-based

The subject of one experiment is K. pneumoniae GN 3835. As to conditions: Klebsiella pneumoniae, GN3835. An excerpt:
(§1) The antibiotic activity of sodium 7α-methoxy-7β-(2-aminothiazol-4-ylacetamido)-3-(1-methyl-1H-tetrazol-5-ylthiomethyl)-3-cephem-4-carboxylate obtained in the reference experiment is shown as follows.

For a further experiment, the system named is E. coli 0-111. The settings on record: Escherichia coli, 0111.
Text: as §1

For another experiment, the system named is E. coli T-7. As to conditions: Escherichia coli, T7.
Text: as §1

Another experiment relates to E. coli NIHJ. As to conditions: Escherichia coli.
Text: as §1

Another experiment has as its system S. aureus Fs 40204. As to conditions: Staphylococcus aureus, FS40204.
Text: as §1

In the next experiment the test system is Ps. aeruginosae PM3. As to conditions: Pseudomonas aeruginosa.
Text: as §1

In another experiment the test system is K. pneumoniae DT. The settings on record: Klebsiella pneumoniae.
Text: as §1

Another experiment deals with S. aureus 209p. As to conditions: Staphylococcus aureus.
Text: as §1

In experiment [1] the test system is Serr. marcescens IFO 12648. The settings on record: Serratia marcescens, IFO12648.
Text: as §1

For a further experiment, the system named is P. vulgaris GN 4413. The settings on record: Proteus vulgaris, GN4413.
Text: as §1

The next experiment has as its system S. aureus 1840. The settings on record: Staphylococcus aureus.
Text: as §1

The next experiment concerns Serratia TN0024.
Text: as §1

For `CO[C@@]1(NC(=O)Cc2csc(N)n2)C(=O)N2C(C(=O)O)=C(CSc3nnnn3C)CS[C@@H]21` [Sodium 7α-methoxy-7β-(2-aminothiazol-4-ylacetamido)-3-(1-methyl-1H-tetrazol-5-ylthiomethyl)-3-cephem-4-carboxylate], the MIC in the experiment with K. pneumoniae GN 3835 is 1.56 µg/mL; with E. coli 0-111 it was 0.78 µg/mL; in the experiment with E. coli T-7, 6.25 µg/mL; against E. coli NIHJ, 1.56 µg/mL; in the experiment with S. aureus Fs 40204 it was 3.13 µg/mL; with Ps. aeruginosae PM3, 6.25 µg/mL. Besides, the MIC was determined as 0.78 µg/mL with K. pneumoniae DT; 1.56 µg/mL with S. aureus 209p; 6.25 µg/mL in [1]; 6.25 µg/mL with P. vulgaris GN 4413; 3.13 µg/mL against S. aureus 1840; 6.25 µg/mL against Serratia TN0024.
